In patent US20120022143A1, “RNA Interference Mediated Inhibition of the Thymic Stromal Lymphopoietin (TSLP) Gene Expression Using Short Interfering Nucliec Acid (siNA)” (Merck Sharp & Dohme Corp, priority 2009, published 2012):
[invAb] = inverted abasic unit; d = 2'-deoxy (DNA); m = 2'-O-methyl; r = 2'-OH (RNA); f = 2'-fluoro

Columns and labels:
mTSLP mRNA = test: Initial screening: mouse TSLP mRNA knock-down by RT-PCR (Taqman) after RNAiMax transfection of NIH 3T3 cells; format: cell-based; settings: 10 nM siNA, 24 hrs post-transfection, mean ± s.d., summary from 2 screens
Description: (§1) All cells were obtained from ATCC (Manassas, Va.) unless otherwise indicated. Cells were grown and transfected under standard conditions, which are detailed below for each cell line.
NIH 3T3 (murine; ATCC cat#CRL-1658): Cells were cultured at 37° C. in the presence of 5% CO2 and grown in Dulbecco's modified Eagle's medium (DMEM) with 4 mM L-glutamine adjusted to contain 1.5 g/L sodium bicarbonate and 4.5 g/L glucose and supplemented with fetal bovine serum at a final concentration of 10% and 100 μg/mL of streptomycin and 100 U/mL penicillin.
(§2) All transfections were performed using RNAiMax (Invitrogen Cat# 13778-150) as per the manufacturer's instructions.
(§3) Both human and murine cell lines were transfected in the similar fashion. Cells were plated in all wells of a tissue-culture treated, 96-well plate at a final count of 5,000 cells/well in […], of appropriate culture media. Cells were cultured for 24 hours after plating at 37° C. in the presence of 5% CO2.
(§4) After 24 hours, complexes containing siNA and RNAiMax were created as follows: A solution of RNAiMax diluted 33-fold in OPTI-MEM was prepared. In parallel, solutions of the siNAs for testing were prepared to a final concentration of 120 nM in OPTI-MEM. After incubation of RNAiMax/OPTI-MEM solution at room temperature for 5 min, an equal volume of the siNA solution and the RNAiMax solution were added together for each of the siNAs.
(§5) This solution was incubated at room temperature for 20 minutes. After incubation, 20 uL of the solution was added to each of the relevant wells.
(§6) The final concentration of siNA in each well was 10 nM and the final volume of RNAiMax in each well was 0.3 ul.
(§7) The time of incubation with the RNAiMax-siNA complexes was 24 hours, unless otherwise indicated. There was no change in media between the transfection and harvesting of the cells unless otherwise indicated.
(§8) RNA was extracted from a 96-well plate using the TaqMan® Gene Expression Cells-to-CT™ Kit (Cat# 4399002) with a modified protocol. Briefly, a 60 uL (1 plate) or 110 uL (2 plates) of the Lysis Solution with DNase I was dispensed into each well of the Lysis Buffer Plate (twin.tec full skirt plate). The lysis buffer and stop plates were stored at 4° C. until the cells were washed.
(§9) The plate was spun at 1100 rpm for 5 minutes. The culture medium was aspirated and discarded from the wells of the culture plate. The lysis was performed automatically using a BioMek FX instrument and method. After the Biomek method was completed, the lysis plate was incubated for 2 min. at room temperature. The lysis plate can be stored for 2 hours at 4° C., or at −20° C. or −80° C. for two months.
(§10) Each well of the reverse transcription plate required 10 uL of 2× reverse transcriptase Buffer, luL of 20× reverse transcription enzyme and 2 uL of nuclease-free water. The reverse transcription master mix was prepared by mixing 2× reverse transcription buffer, 20× reverse transcription enzyme mix, and nuclease-free water. 13 uL of the reverse transcription master mix was dispensed into each well of the reverse transcription plate (semi-skirted). A separate reverse transcription plate was prepared for each cell plate. The plate was loaded onto a Biomek NX or Biomek FX Dual-96 and the Biomek method was run. The program is programmed to automatically added 7 uL of lysate from the cell lysis procedure described above into each well of the reverse transcription plate. The plate is sealed and spun on a centrifuge (1000 rpm for 30 seconds) to settle the contents to the bottom of the reverse transcription plate. The plate is placed in a thermocycler at 37° C. for 60 min, 95° C. for 5 min, and 4° C. until the plate is removed from the thermocycler. Upon removal, if not used immediately, the plate was frozen at −20° C.
A series of probes and primers were used to detect the various mRNA transcripts of the genes of TSLP, IL-8 and GAPDH in human cell lines. […]

TSLP mRNA = test: Initial screening: TSLP mRNA knock-down by RT-PCR (Taqman) after RNAiMax transfection of NHLF cells; format: cell-based; settings: 10 nM siNA, human NHLF cells, 24 hrs post-transfection, relative to non-targeting control, normalized to GAPDH; mean ± s.d. from 2 experiments
Description: as §1
NHLF (human; Lonza cat# CC-2512): Cells were cultured at 37° C. in the presence of 5% CO2 and grown Fibroblast Basal Medium (Lonza cat# CC-3β2) supplemented growth factors (provided with the kit) and 100 μg/mL of streptomycin and 100 U/mL penicillin.
as §2, §3, §4, §5, §6, §7, §8, §9, §10
A series of probes and primers were used to detect the various mRNA transcripts of the genes of TSLP, IL-8 and GAPDH in human cell lines. All the Taqman probes and primers for the experiments here-in described were supplied as pre-validated sets by Applied Biosystems, Inc. (see Table 2). […]

Substance	% KD mTSLP NIH3T3 (mTSLP mRNA)	% KD TSLP (TSLP mRNA)
25430-DC: siNA duplex: sense B cccuGAAAAAGGAAAAAuA TTB (SEQ ID NO: 43), antisense UAUuuuuccuuuuucAGGGUU (SEQ ID NO: 44) (sense CCCUGAAAAAGGAAAAAUATT; antisense UAUUUUUCCUUUUUCAGGGUU; inverted abasic caps, TT overhang, chemistry not fully specified)	30.4 ± 9.9%	89 ± 4.5%
25431-DC: siNA duplex: sense B GcuucAGGAuGcAuuGcAA TTB (SEQ ID NO: 45), antisense UUGcAAuGcAuccuGAAGcUU (SEQ ID NO: 46) (sense GCUUCAGGAUGCAUUGCAATT; antisense UUGCAAUGCAUCCUGAAGCUU; sense: DNA at AGT, 2'-fluoro at CU, [invAb] at 5' end, 3' end, backbone not given here; antisense: sugars from the 5' end rrrfmmfmfmffffmmmmfmm, backbone not given here)	−10.8 ± 14.2%	−11 ± 39.5%
25432-DC: siNA duplex: sense B cuGAGGAAAAucAGGAcAu TTB (SEQ ID NO: 47), antisense AUGuccuGAuuuuccucAGUU (SEQ ID NO: 48) (sense CUGAGGAAAAUCAGGACAUTT; antisense AUGUCCUGAUUUUCCUCAGUU; sense: DNA at AGT, 2'-fluoro at CU, [invAb] at 5' end, 3' end, backbone not given here; antisense: sugars from the 5' end r3 f4 m2 f8 m4, backbone not given here)	37.1 ± 3.8%	47 ± 26.2%
25433-DC: siNA duplex: sense B cGcucGccAAAGAAAuGuu TTB (SEQ ID NO: 49), antisense AACAuuucuuuGGcGAGcGUU (SEQ ID NO: 50) (sense CGCUCGCCAAAGAAAUGUUTT; antisense AACAUUUCUUUGGCGAGCGUU; sense: DNA at AGT, 2'-fluoro at CU, [invAb] at 5' end, 3' end, backbone not given here; antisense: sugars from the 5' end rrrmfffffffmmfmmmfmmm, backbone not given here)	7.5 ± 3.3%	36 ± 25^ %
25435-DC: siNA duplex: sense B cccAAGcucuuAAAuGcuA TTB (SEQ ID NO: 53), antisense UAGcAuuuAAGAGcuuGGGUU (SEQ ID NO: 54) (sense CCCAAGCUCUUAAAUGCUATT; antisense UAGCAUUUAAGAGCUUGGGUU; sense: DNA at AGT, 2'-fluoro at CU, [invAb] at 5' end, 3' end, backbone not given here; antisense: sugars from the 5' end rrrfmfffmmmmmfffmmmmm, backbone not given here)	−60.6 ± 5.4%	−8 ± 25.4%
25437-DC: siNA duplex: sense B cAGGGAGAcuccAAcuuAA TTB (SEQ ID NO: 57), antisense UUAAGuuGGAGucucccuGUU (SEQ ID NO: 58) (sense CAGGGAGACUCCAACUUAATT; antisense UUAAGUUGGAGUCUCCCUGUU; sense: sugars from the 5' end frddddddffffddfffdddd, [invAb] at 5' end, 3' end, backbone not given here; antisense: sugars from the 5' end rrrmmffmmmmfffffffmmm, backbone not given here)	33.8 ± 4.2%	−51 ± 36.2%
25439-DC: siNA duplex: sense B cAcGuGGGAAuGcAcuGAu TTB (SEQ ID NO: 61), antisense AUCAGuGcAuucccAcGuGUU (SEQ ID NO: 62) (sense CACGUGGGAAUGCACUGAUTT; antisense AUCAGUGCAUUCCCACGUGUU; sense: DNA at AGT, 2'-fluoro at CU, [invAb] at 5' end, 3' end, backbone not given here; antisense: sugars from the 5' end rrrmmfrfmfffffmfmfrmm, backbone not given here)	16.8 ± 14.7%	12 ± 36.7%
25440-DC: siNA duplex: sense B cucuGGuuuuuuAAAuGuA TTB (SEQ ID NO: 63), antisense UACAuuuAAAAAAccAGAGUU (SEQ ID NO: 64) (sense CUCUGGUUUUUUAAAUGUATT; antisense UACAUUUAAAAAACCAGAGUU; sense: DNA at AGT, 2'-fluoro at CU, [invAb] at 5' end, 3' end, backbone not given here; antisense: sugars from the 5' end rrrmfffmmmmmmffmmmmmm, backbone not given here)	1 ± 33.1%	16 ± 20.1%
25441-DC: siNA duplex: sense B GGucAGuuAuGucAAuGuu TTB (SEQ ID NO: 65), antisense AACAuuGAcAuAAcuGAccUU (SEQ ID NO: 66) (sense GGUCAGUUAUGUCAAUGUUTT; antisense AACAUUGACAUAACUGACCUU; sense: DNA at AGT, 2'-fluoro at CU, [invAb] at 5' end, 3' end, backbone not given here; antisense: sugars from the 5' end rrrmffmmfmfmmffmmffmm, backbone not given here)	−13.4 ± 10^ %	40 ± 16.2%
25442-DC: siNA duplex: sense B GGcAAGAGAuuGcAucAuA TTB (SEQ ID NO: 67), antisense UAUGAuGcAAucucuuGccUU (SEQ ID NO: 68) (sense GGCAAGAGAUUGCAUCAUATT; antisense UAUGAUGCAAUCUCUUGCCUU; sense: DNA at AGT, 2'-fluoro at CU, [invAb] at 5' end, 3' end, backbone not given here; antisense: sugars from the 5' end rrrmmfmfmmffffffmffmm, backbone not given here)	−70.9 ± 6.4%	12 ± 27^ %
25443-DC: siNA duplex: sense B GAGGAAGcuuAcAuuAcAu TTB (SEQ ID NO: 69), antisense AUGuAAuGuAAGcuuccucUU (SEQ ID NO: 70) (sense GAGGAAGCUUACAUUACAUTT; antisense AUGUAAUGUAAGCUUCCUCUU; sense: DNA at AGT, 2'-fluoro at CU, [invAb] at 5' end, 3' end, backbone not given here; antisense: sugars from the 5' end rrrfmmfmfmmmfffffffmm, backbone not given here)	16.7 ± 11.7%	43 ± 12.1%
25444-DC: siNA duplex: sense B GuGucAcAAuuAcAAGGAu TTB (SEQ ID NO: 71), antisense AUCcuuGuAAuuGuGAcAcUU (SEQ ID NO: 72) (sense GUGUCACAAUUACAAGGAUTT; antisense AUCCUUGUAAUUGUGACACUU; sense: DNA at AGT, 2'-fluoro at CU, [invAb] at 5' end, 3' end, backbone not given here; antisense: sugars from the 5' end rrrfffmfmmffmfmmfmfmm, backbone not given here)	19.5 ± 19%	80 ± 5.3%
